Literature values, collected in patent US20250268823A1, “Aqueous Quetiapine Solutions” (RELIIS LTD, priority 2022, published 2025).
Counter-ions that a name gives are not always drawn.

Legend:
[1] = biological target: dopaminergic D1 receptors (Homo sapiens, UniProt P21728)
[2] = biological target: dopaminergic D2 receptors (Homo sapiens, UniProt P14416)
dopaminergic D2 receptors, sequence (P14416 whole entry): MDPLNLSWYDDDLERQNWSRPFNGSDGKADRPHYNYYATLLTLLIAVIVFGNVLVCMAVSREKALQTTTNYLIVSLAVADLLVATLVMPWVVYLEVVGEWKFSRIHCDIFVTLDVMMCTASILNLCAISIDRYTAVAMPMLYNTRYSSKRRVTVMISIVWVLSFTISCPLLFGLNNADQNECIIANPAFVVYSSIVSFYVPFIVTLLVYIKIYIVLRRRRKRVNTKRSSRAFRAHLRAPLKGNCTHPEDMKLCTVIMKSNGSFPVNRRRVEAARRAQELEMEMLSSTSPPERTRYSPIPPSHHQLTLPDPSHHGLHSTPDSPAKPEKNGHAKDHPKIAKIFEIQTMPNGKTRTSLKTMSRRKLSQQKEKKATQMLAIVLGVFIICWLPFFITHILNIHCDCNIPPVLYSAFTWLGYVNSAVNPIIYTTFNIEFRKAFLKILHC

dopaminergic D1 receptors, sequence (P21728 whole entry): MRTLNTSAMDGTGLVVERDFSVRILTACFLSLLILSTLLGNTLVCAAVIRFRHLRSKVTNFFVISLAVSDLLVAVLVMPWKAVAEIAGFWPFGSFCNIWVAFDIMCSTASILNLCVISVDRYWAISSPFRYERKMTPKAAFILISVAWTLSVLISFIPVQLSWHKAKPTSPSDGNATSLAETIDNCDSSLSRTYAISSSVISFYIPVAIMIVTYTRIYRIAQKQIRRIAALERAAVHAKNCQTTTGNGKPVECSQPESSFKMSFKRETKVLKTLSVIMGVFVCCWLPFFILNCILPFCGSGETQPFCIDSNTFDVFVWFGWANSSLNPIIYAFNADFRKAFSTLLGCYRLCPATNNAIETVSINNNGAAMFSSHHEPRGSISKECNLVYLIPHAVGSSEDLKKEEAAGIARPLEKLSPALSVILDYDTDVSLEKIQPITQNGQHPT

solubility in water | affinity to D1 receptors [1] | affinity to D2 receptors [2] | binding at D2 receptors [2] | affinity to α1-adrenergic receptors (α1-adrenergic receptors) | affinity to α2-adrenergic receptors (α2-adrenergic receptors) | Structure (SMILES)
about 0.04 mg/ml | – | – | – | – | – | OCCOCCN1CCN(C2=Nc3ccccc3Sc3ccccc32)CC1 [quetiapine fumarate]
– | major affinity | major affinity | low binding | moderate affinity | moderate affinity | OCCOCCN1CCN(C2=Nc3ccccc3Sc3ccccc32)CC1 [Quetiapine, 2-(2-(4-(dibenzo[b,f][1,4]thiazepin-11-yl)piperazin-1-yl)ethoxy)ethanol]
